Data: patent US4215135A, “Antiinflammatory 2-substituted-1H-phenanthro[9,10-d]imidazoles” (E. I. Du Pont de Nemours and Company, priority 1979, dated 1980)

System: adjuvant-induced arthritis in rats
Assay: Established adjuvant-induced arthritis in rats (A.A.)
Assay type: in vivo, Charles River Lewis male rats
Conditions: Rattus norvegicus, 24 h; oral gavage, 7 daily doses; established adjuvant arthritis; uninjected left hind paw volume one day after last dose; read-out: A.A. ED50% (% paw volume reduction from control)

Row | SMILES | ED50 [mg/kg]
1 | CC(C)Cc1ccc(C(C)C(=O)O)cc1 (stereo not drawn) [Ibuprofen, reference compound] | 100
2 | CCCCC1C(=O)N(c2ccccc2)N(c2ccccc2)C1=O [Phenylbutazone, reference compound] | 10

Same assay, conditions: Rattus norvegicus, po, 24 h, read-out: A.A. ED50% (% paw volume reduction from control)

Row | SMILES | ED50 [mg/kg]
3 | CC(=O)Oc1ccccc1C(=O)O [Aspirin, reference compound] | 305
4 | FC(F)C(F)(F)Sc1nc2c3ccccc3c3ccccc3c2[nH]1 [Example 2, 2-[(1,1,2,2-tetrafluoroethyl)thio]-1H-phenanthro[9,10-d]imidazole] | > 25
5 | O=S(=O)(c1nc2c3ccccc3c3ccccc3c2[nH]1)C(F)(F)C(F)F [Example 3, 2-[(1,1,2,2-Tetrafluoroethyl)sulfonyl]-1H-phenanthro-[9,10-d]-imidazole] | 28
6 | Fc1ccc2c(c1)c1cc(F)ccc1c1[nH]c(SC(F)(F)C(F)F)nc21 [Example 7, 6,9-Difluoro-2-[(1,1,2,2-tetrafluoroethyl)thio]-1H-phenanthro-[9,10-d]imidazole] | 0.45
7 | O=S(=O)(c1nc2c3ccc(F)cc3c3cc(F)ccc3c2[nH]1)C(F)(F)C(F)F [Example 8, 6,9-Difluoro-2-[(1,1,2,2-tetrafluoroethyl)sulfonyl]-1H-phenanthro[9,10-d]imidazole] | 0.8
8 | COc1ccc2c(c1)c(CC(=O)O)c(C)n2C(=O)c1ccc(Cl)cc1 [Indomethacin, reference compound] | 0.3

System: phenylquinone-induced writhing (pain) in mice
Assay: Phenylquinone writhing test
Assay type: in vivo, female white mice
Conditions: Mus musculus; oral; phenylquinone i.p.; footnote: at 2 hours; read-out: ED50 (effective analgesic dose for 50% of the mice)
Procedure: A procedure for detecting and comparing the analgesic activity of compounds in this series and standard drugs for which there is a good correlation with human efficacy is the phenylquinone writhing test.
The phenylquinone writhing test, modified from Siegmund, et al., Proc. Soc. Exp. Biol. Med. 95, 729 (1957), was employed. A test compound suspended in 1% methylcellulose was given orally to fasted (17-21 hours) female white mice, 5-20 animals per double blind test. […] […] The effective analgesic dose for 50% of the mice (ED50) was calculated by the moving average method of Thompson, W. R., Bact. Rev. 11, 115-145 (1947).

Row | SMILES | ED50 [mg/kg]
9 | COc1ccc2c(c1)c1cc(OC)ccc1c1[nH]c(S(=O)(=O)C(F)(F)F)nc21 [Example 6, 6,9-Dimethoxy-2-(trifluoromethylsulfonyl)-1H-phenanthro-[9,10-d]imidazole] | 29
